{
  "source": "patent US20260306464A1",
  "about": "“LINAPRAZAN GLURATE FOR TREATING GASTROESOPHAGEAL REFLUX DISEASE (GERD)” (Cinclus Pharma Holding AB (publ), priority 2023, published 2026)",
  "key": {"[1]": {"experiment": "LEED study: safety and tolerability (adverse events)", "details": "for COVID-19 (%) / COVID-19 events / Constipation (%) / Constipation events / Headache (%) / Headache events / Nausea (%) / Nausea events: TEAE"}, "[2]": {"experiment": "Plasma pharmacokinetics / metabolism of linaprazan glurate", "type": "in vivo"}},
  "data": [
    {"smiles": "Cc1cccc(C)c1CNc1cc(C(=O)NCCOC(=O)CCCC(=O)O)cn2c(C)c(C)nc12", "note": "[linaprazan glurate, 5-{2-[({8-[(2,6-dimethylbenzyl)amino]-2,3-dimethylimidazo[1,2-a]pyridine-6-yl}carbonyl)-amino]ethoxy}-5-oxopentanoic acid]", "values": [
      {"measurement": "safety data vs lansoprazole", "setting": "[1]; LG 25-100 mg BID", "result": "comparable to that of lansoprazole"},
      {"measurement": "tolerability", "setting": "[1]; LG 25-100 mg BID", "result": "generally well tolerated"},
      {"measurement": "COVID-19 (%)", "setting": "[1]; LG 25 mg BID", "result": 2.0, "unit": "%"},
      {"measurement": "COVID-19 events", "setting": "[1]; LG 25 mg BID", "result": 1, "unit": "events"},
      {"measurement": "Constipation (%)", "setting": "[1]; LG 25 mg BID", "result": 3.9, "unit": "%"},
      {"measurement": "Constipation events", "setting": "[1]; LG 25 mg BID", "result": 2, "unit": "events"},
      {"measurement": "Headache (%)", "setting": "[1]; LG 25 mg BID", "result": 2.0, "unit": "%"},
      {"measurement": "Headache events", "setting": "[1]; LG 25 mg BID", "result": 1, "unit": "events"},
      {"measurement": "Nausea (%)", "setting": "[1]; LG 25 mg BID", "result": 2.0, "unit": "%"},
      {"measurement": "Nausea events", "setting": "[1]; LG 25 mg BID", "result": 1, "unit": "events"},
      {"measurement": "COVID-19 (%)", "setting": "[1]; LG 50 mg BID", "result": 4.2, "unit": "%"},
      {"measurement": "COVID-19 events", "setting": "[1]; LG 50 mg BID", "result": 2, "unit": "events"},
      {"measurement": "Constipation (%)", "setting": "[1]; LG 50 mg BID", "result": 2.1, "unit": "%"},
      {"measurement": "Constipation events", "setting": "[1]; LG 50 mg BID", "result": 1, "unit": "events"},
      {"measurement": "Headache (%)", "setting": "[1]; LG 50 mg BID", "result": 6.3, "unit": "%"},
      {"measurement": "Headache events", "setting": "[1]; LG 50 mg BID", "result": 3, "unit": "events"},
      {"measurement": "Nausea (%)", "setting": "[1]; LG 50 mg BID", "result": 0.0, "unit": "%"},
      {"measurement": "Nausea events", "setting": "[1]; LG 50 mg BID", "result": 0, "unit": "events"},
      {"measurement": "COVID-19 (%)", "setting": "[1]; LG 75 mg BID", "result": 1.9, "unit": "%"},
      {"measurement": "COVID-19 events", "setting": "[1]; LG 75 mg BID", "result": 1, "unit": "events"},
      {"measurement": "Constipation (%)", "setting": "[1]; LG 75 mg BID", "result": 3.8, "unit": "%"},
      {"measurement": "Constipation events", "setting": "[1]; LG 75 mg BID", "result": 2, "unit": "events"},
      {"measurement": "Headache (%)", "setting": "[1]; LG 75 mg BID", "result": 1.9, "unit": "%"},
      {"measurement": "Headache events", "setting": "[1]; LG 75 mg BID", "result": 1, "unit": "events"},
      {"measurement": "Nausea (%)", "setting": "[1]; LG 75 mg BID", "result": 0.0, "unit": "%"},
      {"measurement": "Nausea events", "setting": "[1]; LG 75 mg BID", "result": 0, "unit": "events"},
      {"measurement": "COVID-19 (%)", "setting": "[1]; LG 100 mg BID", "result": 8.5, "unit": "%"},
      {"measurement": "COVID-19 events", "setting": "[1]; LG 100 mg BID", "result": 4, "unit": "events"},
      {"measurement": "Constipation (%)", "setting": "[1]; LG 100 mg BID", "result": 0.0, "unit": "%"},
      {"measurement": "Constipation events", "setting": "[1]; LG 100 mg BID", "result": 0, "unit": "events"},
      {"measurement": "Headache (%)", "setting": "[1]; LG 100 mg BID", "result": 2.1, "unit": "%"},
      {"measurement": "Headache events", "setting": "[1]; LG 100 mg BID", "result": 1, "unit": "events"},
      {"measurement": "Nausea (%)", "setting": "[1]; LG 100 mg BID", "result": 0.0, "unit": "%"},
      {"measurement": "Nausea events", "setting": "[1]; LG 100 mg BID", "result": 0, "unit": "events"},
      {"measurement": "plasma concentration of linaprazan glurate", "setting": "[2]; following absorption", "result": "very low"},
      {"measurement": "metabolism into linaprazan", "setting": "[2]; following absorption into the blood stream", "result": "quickly metabolized into linaprazan"}
    ]}
  ]
}
